# Tests used:
# Assay type in all cases: in vivo, rat
# [1] = tested on: TNF-α, IL-1β, IL-6, iNOS, IL-10 mRNA at spinal cord injury site; assay: RT-PCR analysis of cytokine mRNA in injured spinal cord; conditions: 5 nmol/kg tail vein
# Protocol: (§1) For the present experiment, male white mice (Sprague-Dawley 240-250 g, 7 weeks, 10 mice) were under general anesthetics by an intraperitoneal injection of Ketamin (80 mg/kg, Yuhan Corporation) and Rompun (7.4 mg/kg, Bayer Korea Corporation). Laminectomy was performed at spine T9-10 level to expose a spinal cord keeping intact dura. And then, rat was put on Spinal cord dropping device (NYU); spine processes at T8 and T11 sites were fixed by using a clamp, respectively; then, a rod (diameter 2 mm, weight 10 g) was dropped from 25 mm height vertical to dorsal part of spinal cord followed by suturing injury site muscle and skin. The rat of Sham-operated control group was performed only laminectomy at same area without damaging spinal cord injury (marked by ‘sham” in figures; hereinafter, the same as above).
# (§2) Substance P (marked by ‘SP’ in figures; hereinafter, the same as above) dissolved in saline of 5 nmol/kg concentration was injected through tail vein at immediately, 24 hours, and 48 hours after a spinal cord injury for experimental groups. At sham control group, same volume of saline (marked by ‘vehicle’ in figures; hereinafter, the same as above) without Substance P was injected at same time points. Operation were performed on an electric heating pad of 37° C., and then rat were transferred to cage after awake from the anesthetic. • (2) Preparation of Tissue
# Substance P (5 nmol/kg in saline) or saline (the same volume without Substance P) was injected through tail vein at various time points at immediately, 1 d, 2d after operation as (1) of Example 1. At 1 hour, 6 hours, 1 day, 3 days, and 5 days, the experimental group (6 rats/group) and the control (6 rats/group) were sacrificed, respectively. After exposing a spinal cord by laminectomy, spin cord with a length of 1 cm, the injury site between T9-10 as the central, was quickly cut off, and immediately put into liquid nitrogen. Total RNA was extracted by using Trizol reagent (Invitrogen), and the cDNA was synthesized through Reverse transcription process. Then, PCR (Chromagen) was performed using primers of TNF-α IL-1β iNOS. Primer's sequences and PCR conditions were as follows.
# [2] = tested on: activated microglia/macrophage; assay: Immunofluorescence staining of ED1 at spinal cord injury site; conditions: 5 nmol/kg tail vein at immediately, 24 h, 48 h after spinal cord injury; 5 days after operation; vs control, rostal to caudal area
# Protocol: as §1
# as §2, with “Tissue […]” for “Tissue”
# [3] = tested on: M2 (ED1 positive, CD206 positive) phenotype macrophages; assay: MACS assay of M1/M2 phenotype macrophages in spinal cord injury model; conditions: tail vein injection, five days after spinal cord injury
# Protocol: as §1, with “The rat of Sham-operated control group was performed only laminectomy at same area without damaging spinal cord injury (marked by ‘sham” in figures; hereinafter, the same as above).” left out
# Microglia and macrophage have an inflammatory macrophage phenotype (M1) and selectively activated macrophage phenotype (M2). […] MACS (Miltenyi Biotec, Bergisch Gladbach) assay was performed in order to determine a quantitative amount of M1 (ED1 positive, CD206 negative) and M2 (ED1 positive, CD206 positive) phenotype macrophages after Substance P-injection in a spinal cord injury model.
# At immediately, 1 d, 2d, Substance P or saline (the same volume without Substance P) was injected to a tail vein after a spinal cord injury, using the same method as (1) of Example 1. […] Magnetically labeled cells were collected by washing the column and then counted. […]
# [4] = 1 hour after spinal cord injury, vs control
substance,measurement,setting,value
Substance P,expression of IL-1β mRNA,[1]; [4],slightly decreased
same,expression of IL-6 mRNA,[1]; [4],slightly decreased
same,expression of TNF-α mRNA,[1]; [4],slightly decreased
same,expression of iNOS mRNA,[1]; [4],slightly decreased
same,increase of expression of IL-10 mRNA,"[1]; 6 hours after spinal cord injury, vs control",at least 17 times
same,expression of iNOS,[1]; one day after spinal cord injury,surely decreased
same,"expressions of inflammatory cytokines (TNF-α, IL-1β, IL-6, iNOS mRNAs)","[1]; other times than 1 hour, between two groups",do not have a difference
same,expression of IL-10 mRNA,"[1]; up to 3 day after spinal cord injury, vs control",persist increasing level
same,activated microglia/macrophage expressing ED1 antigen,[2],significantly decreased
same,CD-206 positive percentage as compared with the control,[3],about 6.5 times
same,activated microglia/macrophages CD-206 positive,[3],58.7%
